# In PubChem BioAssay (NCI):
#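 Test compounds were applied to cells in 96-well plates for 48 hours at 5 doses. GI50: concentration for 50% inhibition of growth. TGI is the concentration that stops growth completely.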
# Key:
# Assay in all cases: inhibition of tumour cell growth, NCI panel, 48 h
# NCI-H460 lung = tested on: NCI-H460 lung
# HCC-2998 colon = tested on: HCC-2998 colon
# NCI-H522 lung = tested on: NCI-H522 lung
# OVCAR-3 ovarian = tested on: OVCAR-3 ovarian
# UACC-62 melanoma = tested on: UACC-62 melanoma
# K-562 leukemia = tested on: K-562 leukemia
# HS 578T breast = tested on: HS 578T breast
# HL-60(TB) leukemia = tested on: HL-60(TB) leukemia
# OVCAR-5 ovarian = tested on: OVCAR-5 ovarian
# A498 renal = tested on: A498 renal
# MOLT-4 leukemia = tested on: MOLT-4 leukemia
# EKVX NSCLC = tested on: EKVX NSCLC
# SK-MEL-2 melanoma = tested on: SK-MEL-2 melanoma
# MDA-MB-231 breast = tested on: MDA-MB-231 breast
# SF-539 CNS = tested on: SF-539 CNS
# HCT-15 colon = tested on: HCT-15 colon
# M14 melanoma = tested on: M14 melanoma
# MALME-3M melanoma = tested on: MALME-3M melanoma
# HCT-116 colon = tested on: HCT-116 colon
# U251 CNS = tested on: U251 CNS
# NCI-H23 lung = tested on: NCI-H23 lung
# SK-MEL-5 melanoma = tested on: SK-MEL-5 melanoma
# NCI-H226 lung = tested on: NCI-H226 lung
# SF-295 CNS = tested on: SF-295 CNS
# RXF 393 renal = tested on: RXF 393 renal
# UACC-257 melanoma = tested on: UACC-257 melanoma
# SW-620 colon = tested on: SW-620 colon
# SK-MEL-28 melanoma = tested on: SK-MEL-28 melanoma
# SN12C renal = tested on: SN12C renal
# LOX IMVI melanoma = tested on: LOX IMVI melanoma
# OVCAR-8 ovarian = tested on: OVCAR-8 ovarian
# IGROV1 ovarian = tested on: IGROV1 ovarian
# ACHN renal = tested on: ACHN renal
# SNB-75 CNS = tested on: SNB-75 CNS
# HOP-92 NSCLC = tested on: HOP-92 NSCLC
# HOP-62 NSCLC = tested on: HOP-62 NSCLC
# SR leukemia = tested on: SR leukemia
# UO-31 renal = tested on: UO-31 renal
# OVCAR-4 ovarian = tested on: OVCAR-4 ovarian
# RPMI-8226 leukemia = tested on: RPMI-8226 leukemia
# A549 NSCLC = tested on: A549 NSCLC
# HT29 colon = tested on: HT29 colon
# MDA-MB-435 = tested on: MDA-MB-435
# SF-268 CNS = tested on: SF-268 CNS
# TK-10 renal = tested on: TK-10 renal
# DU-145 prostate = tested on: DU-145 prostate
# SK-OV-3 ovarian = tested on: SK-OV-3 ovarian
# 786-0 renal = tested on: 786-0 renal
# CCRF-CEM leukemia = tested on: CCRF-CEM leukemia
# T-47D breast = tested on: T-47D breast
# SNB-19 CNS = tested on: SNB-19 CNS
# COLO 205 colon = tested on: COLO 205 colon
# BT-549 breast = tested on: BT-549 breast
# NCI/ADR-RES ovarian = tested on: NCI/ADR-RES ovarian
# CAKI-1 renal = tested on: CAKI-1 renal
# KM12 colon = tested on: KM12 colon
structure (smiles),measurement,setting,value
COC(=O)c1c2c(c(C)[n+]([O-])c1C)C(=O)C=CC2=O,GI50,NCI-H460 lung,2.72 µM
same,TGI,NCI-H460 lung,7.4 µM
same,GI50,HCC-2998 colon,1.64 µM
same,TGI,HCC-2998 colon,3.13 µM
same,GI50,NCI-H522 lung,1.66 µM
same,TGI,NCI-H522 lung,3.67 µM
same,GI50,OVCAR-3 ovarian,0.314 µM
same,TGI,OVCAR-3 ovarian,1.05 µM
same,GI50,UACC-62 melanoma,1.63 µM
same,TGI,UACC-62 melanoma,3.21 µM
same,GI50,K-562 leukemia,3.04 µM
same,TGI,K-562 leukemia,36 µM
same,GI50,HS 578T breast,2.84 µM
same,TGI,HS 578T breast,8.64 µM
same,GI50,HL-60(TB) leukemia,2.16 µM
same,TGI,HL-60(TB) leukemia,4.84 µM
same,GI50,OVCAR-5 ovarian,1.76 µM
same,TGI,OVCAR-5 ovarian,3.23 µM
same,GI50,A498 renal,3.58 µM
same,TGI,A498 renal,13.9 µM
same,GI50,MOLT-4 leukemia,1.69 µM
same,TGI,MOLT-4 leukemia,4.65 µM
same,GI50,EKVX NSCLC,2.02 µM
same,TGI,EKVX NSCLC,5.12 µM
same,GI50,SK-MEL-2 melanoma,1.89 µM
same,TGI,SK-MEL-2 melanoma,3.99 µM
same,GI50,MDA-MB-231 breast,2.68 µM
same,TGI,MDA-MB-231 breast,8.28 µM
same,GI50,SF-539 CNS,1.8 µM
same,TGI,SF-539 CNS,3.2 µM
same,GI50,HCT-15 colon,1.43 µM
same,TGI,HCT-15 colon,3.31 µM
same,GI50,M14 melanoma,1.78 µM
same,TGI,M14 melanoma,3.45 µM
same,GI50,MALME-3M melanoma,1.53 µM
same,TGI,MALME-3M melanoma,2.92 µM
same,GI50,HCT-116 colon,0.945 µM
same,TGI,HCT-116 colon,7.5 µM
same,GI50,U251 CNS,1.48 µM
same,TGI,U251 CNS,2.83 µM
same,GI50,NCI-H23 lung,1.63 µM
same,TGI,NCI-H23 lung,4.27 µM
same,GI50,SK-MEL-5 melanoma,1.14 µM
same,TGI,SK-MEL-5 melanoma,2.41 µM
same,GI50,NCI-H226 lung,1.42 µM
same,TGI,NCI-H226 lung,2.98 µM
same,GI50,SF-295 CNS,1.78 µM
same,TGI,SF-295 CNS,3.34 µM
same,GI50,RXF 393 renal,1.42 µM
same,TGI,RXF 393 renal,2.88 µM
same,GI50,UACC-257 melanoma,1.57 µM
same,TGI,UACC-257 melanoma,3.34 µM
same,GI50,SW-620 colon,1.54 µM
same,TGI,SW-620 colon,3.74 µM
same,GI50,SK-MEL-28 melanoma,1.96 µM
same,TGI,SK-MEL-28 melanoma,3.6 µM
same,GI50,SN12C renal,1.62 µM
same,TGI,SN12C renal,3.1 µM
same,GI50,LOX IMVI melanoma,1.44 µM
same,TGI,LOX IMVI melanoma,3.04 µM
same,GI50,OVCAR-8 ovarian,0.339 µM
same,TGI,OVCAR-8 ovarian,1.24 µM
same,GI50,IGROV1 ovarian,1.74 µM
same,TGI,IGROV1 ovarian,4.25 µM
same,GI50,ACHN renal,1.9 µM
same,TGI,ACHN renal,3.77 µM
same,GI50,SNB-75 CNS,1.72 µM
same,TGI,SNB-75 CNS,3.12 µM
same,GI50,HOP-92 NSCLC,2.12 µM
same,TGI,HOP-92 NSCLC,6.03 µM
same,GI50,HOP-62 NSCLC,0.744 µM
same,TGI,HOP-62 NSCLC,2.27 µM
same,GI50,SR leukemia,2.28 µM
same,TGI,SR leukemia,8.19 µM
same,GI50,UO-31 renal,1.69 µM
same,TGI,UO-31 renal,3.39 µM
same,GI50,OVCAR-4 ovarian,1.2 µM
same,TGI,OVCAR-4 ovarian,2.47 µM
same,GI50,RPMI-8226 leukemia,2.07 µM
same,TGI,RPMI-8226 leukemia,5.29 µM
same,GI50,A549 NSCLC,3.12 µM
same,TGI,A549 NSCLC,11.6 µM
same,GI50,HT29 colon,2.41 µM
same,TGI,HT29 colon,6.54 µM
same,GI50,MDA-MB-435,1.79 µM
same,TGI,MDA-MB-435,3.31 µM
same,GI50,SF-268 CNS,2.05 µM
same,TGI,SF-268 CNS,5.52 µM
same,GI50,TK-10 renal,2.74 µM
same,TGI,TK-10 renal,7.74 µM
same,GI50,DU-145 prostate,1.82 µM
same,TGI,DU-145 prostate,3.22 µM
same,GI50,SK-OV-3 ovarian,2.26 µM
same,TGI,SK-OV-3 ovarian,5.38 µM
same,GI50,786-0 renal,2.06 µM
same,TGI,786-0 renal,4.51 µM
same,GI50,CCRF-CEM leukemia,0.0559 µM
same,TGI,CCRF-CEM leukemia,7.3 µM
same,GI50,T-47D breast,1.97 µM
same,TGI,T-47D breast,7.26 µM
same,GI50,SNB-19 CNS,1.67 µM
same,TGI,SNB-19 CNS,3.31 µM
same,GI50,COLO 205 colon,1.64 µM
same,TGI,COLO 205 colon,3.35 µM
same,GI50,BT-549 breast,1.72 µM
same,TGI,BT-549 breast,3.14 µM
same,GI50,NCI/ADR-RES ovarian,2.33 µM
same,TGI,NCI/ADR-RES ovarian,7.78 µM
same,GI50,CAKI-1 renal,1.95 µM
same,TGI,CAKI-1 renal,4.2 µM
same,GI50,KM12 colon,1.99 µM
same,TGI,KM12 colon,4.77 µM
